Test results from patent USRE46856E1, “Substituted 2,3-dihydroimidazo[1,2-c]quinazoline derivatives useful for treating hyper-proliferative disorders and diseases associated with angiogenesis” (Bayer Intellectual Property GmbH, priority 2006, dated 2018).
Structures can show the parent of a compound that is named as a salt.

System: IGF-1 induced AKT phosphorylation in A549 cells
Test: IGF-1 induced AKT phosphorylation assay (A549 cell assay)
Format: cell-based
Conditions: Homo sapiens; A549 cells, 25 ng/ml IGF-1, phospho-AKT(Ser 473); read-out: average IC50 in the A549 cell assay
From the text: [Determination of IC50 Values of Compounds in Cell Based Assays of PI3K Activity] 96-well collagen treated clear bottom/black sided Costar plates were purchased from CORNING LIFE SCIENCES (Corning, N.Y.; at.#3904). Gibco RPMI medium (Cat.#11875), Biosource anti-phospho-AKT([…]) antibody (Cat.#44-621G) and recombinant IGF-1 (Cat.#PHG0074) were purchased from INVITROGEN (Carlsbad, Calif.). The secondary donkey anti-rabbit IgG horse radish peroxidase conjugate (Cat. #N[…]) and ECL chemiluminesence reagent (Cat.#RPN2209) were purchased from […] (Buckinghamshire, UK). Cell culture tested bovine serum albumin solution (35% in DPBS; Cat.#A7979) and all other chemicals were purchased from SIGMA (St. Louis, Mo.). The Wallac Victor2 1420 Multilabel HTS Counter was purchased from […] (Wellesley, Mass.) […] All wells (except no IGF-1 controls) were then treated with 25 ng/ml IGF-1 for 10 minutes at 37° C. in a 5% CO2 incubator. Following removal of the supernatants and washing with the wells with TBS (50 mM Tris pH 8.0 containing 138 mM NaCL and 27 mM KCl), 200 µL of 3.7% formaldehyde in TBS was added to each well, and the plate was incubated at 4° C. for 10 minutes. Supernatants were once again removed and replaced with 50 μL Methanol (-20° C.) and the plate incubated at 4° C. for 5 minutes. 200 μL of 0.1% BSA in TBS was then added to each well and the plate incubated at room temperature for 1⁄2 hour. Supernatants were removed and 50 μL of a solution comprising the primary anti-phospho-AKT([…]) antibody diluted 1:250 in TBS containing 0.1% BSA was added to each well (except control/background wells). The plate was then incubated for 11⁄2 hour at room temperature. Supernatants were removed, each well was washed 3 times with 200 μL TBS, and 100 μL of a solution containing the secondary donkey anti-rabbit IgG antibody HRP-conjugate diluted 1:100 in TBS-T (TBS containing 0.1% triton). Plates were then incubated for 1 hour at room temperature. After removing the secondary antibody, each well was washed 6 times with cold TBS-T, 100 μL of ECL was added to each well, and the plate was placed on an orbital shaker for 1 minute. The plates were then read on a Wallac Victor2 1420 Multilabel HTS Counter using the luminometry window (maximum light detection is measured at […]). IC50 values were determined from the inhibition curve.

IC50 [nM] | SMILES
100 to 1000 | COc1c(OCCCN2CCOCC2)ccc2c1N=C(NC(=O)c1ccc(N3CC[C@H](N)C3)nc1)N1CCN=C21 [Example 51, 6-[(3S)-3-aminopyrrolidin-1-yl]-N-[7-methoxy-8-(3-morpholin-4-ylpropoxy)-2,3-dihydroimidazo[1,2-c]quinazolin-5-yl]nicotinamide hydrochloride hydrate]
< 100 | COc1c(OCCCN2CCOCC2)ccc2c1N=C(NC(=O)c1ccc(N3CC[C@@H](N)C3)nc1)N1CCN=C21 [Example 52, 6-[(3R)-3-aminopyrrolidin-1-yl]-N-[7-methoxy-8-(3-morpholin-4-ylpropoxy)-2,3-dihydroimidazo[1,2-c]quinazolin-5-yl]nicotinamide hydrochloride]
100 to 1000 | COc1c(OCCCN2CCOCC2)ccc2c1N=C(NC(=O)c1ccc(NCc3ccco3)nc1)N1CCN=C21 [Example 54, 6-[(2-furylmethyl)amino]-N-[7-methoxy-8-(3-morpholin-4-ylpropoxy)-2,3-dihydroimidazo[1,2-c]quinazolin-5-yl]nicotinamide]
100 to 1000 | COCCNc1ccc(C(=O)NC2=Nc3c(ccc(OCCCN4CCOCC4)c3OC)C3=NCCN23)cn1 [Example 55, 6-[(2-methoxyethyl)amino]-N-[7-methoxy-8-(3-morpholin-4-ylpropoxy)-2,3-dihydroimidazo[1,2-c]quinazolin-5-yl]nicotinamide]
100 to 1000 | CNCCCOc1ccc2c(c1OC)N=C(NC(=O)c1cccnc1)N1CCN=C21 [Example 58, N-{7-methoxy-8-[3-(methylamino)propoxy]-2,3-dihydroimidazo[1,2-c]quinazolin-5-yl}nicotinamide]
< 100 | COc1c(OCCCN2CCOCC2)ccc2c1N=C(NC(=O)c1ccc(NC(=O)C3CC3)nc1)N1CCN=C21 [Example 60, 6-[(cyclopropylcarbonyl)amino]-N-[7-methoxy-8-(3-morpholin-4-ylpropoxy)-2,3-dihydroimidazo[1,2-c]quinazolin-5-yl]nicotinamide]
< 100 | COc1c(OCCCN2CCOCC2)ccc2c1N=C(NC(=O)c1ccc(NC(=O)C(C)C)nc1)N1CCN=C21 [Example 63, 6-(isobutyrylamino)-N-[7-methoxy-8-(3-morpholin-4-ylpropoxy)-2,3-dihydroimidazo[1,2-c]quinazolin-5-yl]nicotinamide]
100 to 1000 | COc1c(OCCCN2CCN(C)CC2)ccc2c1N=C(NC(=O)c1cccnc1)N1CCN=C21 [Example 64, N-{7-methoxy-8-[3-(4-methylpiperazin-1-yl)propoxy]-2,3-dihydroimidazo[1,2-c]quinazolin-5-yl}nicotinamide]
> 1000 | CNC(=O)Nc1nc(C(=O)NC2=Nc3c(ccc(OCCCN4CCOCC4)c3OC)C3=NCCN23)cs1 [Example 65, N-[7-methoxy-8-(3-morpholin-4-ylpropoxy)-2,3-dihydroimidazo[1,2-c]quinazolin-5-yl]-2-{[(methylamino)carbonyl]amino}-1,3-thiazole-4-carboxamide]
< 100 | CNC(=O)Nc1ccc(C(=O)NC2=Nc3c(ccc(OCCCN4CCOCC4)c3OC)C3=NCCN23)cn1 [Example 66, N-[7-methoxy-8-(3-morpholin-4-ylpropoxy)-2,3-dihydroimidazo[1,2-c]quinazolin-5-yl]-6-{[(methylamino)carbonyl]amino}nicotinamide]
100 to 1000 | CNc1nc(C(=O)NC2=Nc3c(ccc(OCCCN4CCOCC4)c3OC)C3=NCCN23)cs1 [Example 67, N-[7-methoxy-8-(3-morpholin-4-ylpropoxy)-2,3-dihydroimidazo[1,2-c]quinazolin-5-yl]-2-(methylamino)-1,3-thiazole-4-carboxamide]
< 100 | COc1c(OCCN2CCOCC2)ccc2c1N=C(NC(=O)c1cccnc1)N1CCN=C21 [Example 68, N-[7-methoxy-8-(2-morpholin-4-ylethoxy)-2,3-dihydroimidazo[1,2-c]quinazolin-5-yl]nicotinamide]
< 100 | COc1c(OCCN(C)C)ccc2c1N=C(NC(=O)c1sc(C)nc1C)N1CCN=C21 [Example 69, N-{8-[2-(dimethylamino)ethoxy]-7-methoxy-2,3-dihydroimidazo[1,2-c]quinazolin-5-yl}-2,4-dimethyl-1,3-thiazole-5-carboxamide]
< 100 | COc1c(OCCN(C)C)ccc2c1N=C(NC(=O)c1ccc(C)nc1)N1CCN=C21 [Example 70, N-{8-[2-(dimethylamino)ethoxy]-7-methoxy-2,3-dihydroimidazo[1,2-c]quinazolin-5-yl}-6-methylnicotinamide]
< 100 | COc1c(OCCCN2CCOCC2)ccc2c1N=C(NC(=O)c1ccc(NC(=O)NC(C)C)nc1)N1CCN=C21 [Example 71, 6-{[(isopropylamino)carbonyl]amino}-N-[7-methoxy-8-(3-morpholin-4-ylpropoxy)-2,3-dihydroimidazo[1,2-c]quinazolin-5-yl]nicotinamide]
100 to 1000 | COc1c(OCCCN2CCOCC2)ccc2c1N=C(NC(=O)c1ccc(N3CCCC3)nc1)N1CCN=C21 [Example 72, N-[7-methoxy-8-(3-morpholin-4-ylpropoxy)-2,3-dihydroimidazo[1,2-c]quinazolin-5-yl]-6-pyrrolidin-1-ylnicotinamide]
100 to 1000 | COc1c(OCCCN2CCOCC2)ccc2c1N=C(NC(=O)c1ccc(N(C)C)nc1)N1CCN=C21 [Example 73, 6-(dimethylamino)-N-[7-methoxy-8-(3-morpholin-4-ylpropoxy)-2,3-dihydroimidazo[1,2-c]quinazolin-5-yl]nicotinamide]
< 100 | COc1c(OCCCN2CCCCC2)ccc2c1N=C(NC(=O)c1cccnc1)N1CCN=C21 [Example 74, N-[7-methoxy-8-(3-piperidin-1-ylpropoxy)-2,3-dihydroimidazo[1,2-c]quinazolin-5-yl]nicotinamide]
< 100 | COc1c(OCCN2CCCC2)ccc2c1N=C(NC(=O)c1cccnc1)N1CCN=C21 [Example 75, N-[7-methoxy-8-(2-pyrrolidin-1-ylethoxy)-2,3-dihydroimidazo[1,2-c]quinazolin-5-yl]nicotinamide]
< 100 | COc1c(OCCN2CCCCC2)ccc2c1N=C(NC(=O)c1cccnc1)N1CCN=C21 [Example 76, N-[7-methoxy-8-(2-piperidin-1-ylethoxy)-2,3-dihydroimidazo[1,2-c]quinazolin-5-yl]nicotinamide]
< 100 | CCNC(=O)Nc1ccc(C(=O)NC2=Nc3c(ccc(OCCCN4CCOCC4)c3OC)C3=NCCN23)cn1 [Example 77, 6-{[(ethylamino)carbonyl]amino}-N-[7-methoxy-8-(3-morpholin-4-ylpropoxy)-2,3-dihydroimidazo[1,2-c]quinazolin-5-yl]nicotinamide]
100 to 1000 | COc1c(OCCCN2CCOCC2)ccc2c1N=C(NC(=O)c1ccc(F)nc1)N1CCN=C21 [Example 78, 6-fluoro-N-[7-methoxy-8-(3-morpholin-4-ylpropoxy)-2,3-dihydroimidazo[1,2-c]quinazolin-5-yl]nicotinamide]
> 1000 | COc1c(OCCCN2CCOCC2)ccc2c1N=C(NC(=O)c1coc(N)n1)N1CCN=C21 [Example 79, 2-amino-N-[7-methoxy-8-(3-morpholin-4-ylpropoxy)-2,3-dihydroimidazo[1,2-c]quinazolin-5-yl]-1,3-oxazole-4-carboxamide]
100 to 1000 | CCNc1nc(C(=O)NC2=Nc3c(ccc(OCCCN4CCOCC4)c3OC)C3=NCCN23)cs1 [Example 80, 2-(ethylamino)-N-[7-methoxy-8-(3-morpholin-4-ylpropoxy)-2,3-dihydroimidazo[1,2-c]quinazolin-5-yl]-1,3-thiazole-4-carboxamide]
> 1000 | COc1c(OCCCN2CCOCC2)ccc2c1N=C(NC(=O)c1cnccn1)N1CCN=C21 [Example 81, N-[7-methoxy-8-(3-morpholin-4-ylpropoxy)-2,3-dihydroimidazo[1,2-c]quinazolin-5-yl]pyrazine-2-carboxamide]
100 to 1000 | COc1c(OCCN)ccc2c1N=C(NC(=O)c1cccnc1)N1CCN=C21 [Example 82, N-[8-(2-aminoethoxy)-7-methoxy-2,3-dihydroimidazo[1,2-c]quinazolin-5-yl]nicotinamide]
< 100 | COc1c(OCCCN2CCOCC2)ccc2c1N=C(NC(=O)c1ccc(N)nc1)N1CCN=C21 [Example 83, 6-amino-N-[7-methoxy-8-(3-morpholin-4-ylpropoxy)-2,3-dihydroimidazo[1,2-c]quinazolin-5-yl]nicotinamide]
100 to 1000 | COc1c(OCCCN2CCOCC2)ccc2c1N=C(NC(=O)c1ccncc1)N1CCN=C21 [Example 84, N-[7-methoxy-8-(3-morpholin-4-ylpropoxy)-2,3-dihydroimidazo[1,2-c]quinazolin-5-yl]isonicotinamide]
